Where two headings read alike, the source gives them in different places.
How the values were obtained:
cathepsin S (CatS) = cathepsin S (CatS) (Homo sapiens, UniProt P25774); experiment: Cathepsin S enzyme inhibition; format: biochemical; settings: SD lower than 15%; read-out: pKi CatS (converted)
Method: (§1) Enzyme inhibition studies for Cz and LmCPB were performed as previously described for Cz. The experimental procedures are described in the Supporting Information (see chapter S3). Cathepsins B, L, S were assayed as reported.

cathepsin B (CatB) = cathepsin B (CatB) (Homo sapiens, UniProt P07858); experiment: Cathepsin B enzyme inhibition; format: biochemical; settings: for Ki: SD lower than 15%, read-out: pKi CatB (converted)
[1] = target: Leishmania mexicana CPB (LmCPB) (Leishmania mexicana, UniProt P36400); experiment: LmCPB enzyme inhibition; format: biochemical; settings: SD lower than 15%; read-out: pKi LmCPB (converted)
Chain of Leishmania mexicana CPB (LmCPB) (P36400 126-443): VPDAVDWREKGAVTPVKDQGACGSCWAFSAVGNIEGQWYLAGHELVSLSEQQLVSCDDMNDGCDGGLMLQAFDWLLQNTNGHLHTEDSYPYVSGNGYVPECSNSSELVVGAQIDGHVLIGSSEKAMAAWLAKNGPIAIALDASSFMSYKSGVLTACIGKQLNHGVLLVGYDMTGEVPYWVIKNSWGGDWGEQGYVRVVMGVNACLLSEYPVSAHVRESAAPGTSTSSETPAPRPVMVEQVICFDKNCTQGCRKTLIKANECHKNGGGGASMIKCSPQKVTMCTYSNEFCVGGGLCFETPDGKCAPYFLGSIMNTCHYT
Method: as §1

[2] = target: T1, Human recombinant cathepsin K (Homo sapiens, UniProt P43235); experiment: Cathepsin K assay; format: biochemical; settings: SD lower than 15%; read-out: pKi CatK (converted)
T1 sequence (P43235 115-329): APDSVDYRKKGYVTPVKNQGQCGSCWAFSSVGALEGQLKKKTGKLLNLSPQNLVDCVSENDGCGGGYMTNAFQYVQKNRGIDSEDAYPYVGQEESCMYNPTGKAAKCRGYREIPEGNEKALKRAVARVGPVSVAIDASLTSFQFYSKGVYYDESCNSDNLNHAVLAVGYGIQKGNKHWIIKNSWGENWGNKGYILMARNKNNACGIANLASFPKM
Method: Human recombinant cathepsin K was assayed on a FLUOSTAR Optima plate reader at 25 °C with an excitation wavelength of 360 nm and an emission wavelength of 440 nm on a 96 well plate. The enzyme solution (23 μg/mL in 50 mM sodium acetate pH 5.5, 50 mM NaCl, 0.5 mM EDTA, 5 mM DTT) was diluted 1:100 with assay buffer (100 mM sodium citrate buffer pH 5.0, 100 mM NaCl, 1 mM EDTA, 0.01% CHAPS) containing 5 mM DTT and was then incubated at 37 °C for 30 min for activation. A 1.5 mM stock solution of the substrate Z-Leu-Arg-AMC was prepared in DMSO. […] The assay was performed with a final concentration of cathepsin K of 1.73 ng/mL. Stock solutions of inhibitors were prepared in DMSO. The final DMSO concentration was 2% (4 μL). Into a well containing 194.5 μL assay buffer, 0.8 μL of the fluorogenic substrate, DMSO and inhibitor solution (3.2 μL) were added. Upon addition of cathepsin K (1.5 μL), the measurement was started and followed for 20 min.

cathepsin L (CatL) = cathepsin L (CatL) (Homo sapiens, UniProt P07711); experiment: Cathepsin L enzyme inhibition; format: biochemical; settings: SD lower than 15%; for Ki: read-out: pKi CatL (converted)
Chain of cathepsin L (CatL) (P07711 114-333): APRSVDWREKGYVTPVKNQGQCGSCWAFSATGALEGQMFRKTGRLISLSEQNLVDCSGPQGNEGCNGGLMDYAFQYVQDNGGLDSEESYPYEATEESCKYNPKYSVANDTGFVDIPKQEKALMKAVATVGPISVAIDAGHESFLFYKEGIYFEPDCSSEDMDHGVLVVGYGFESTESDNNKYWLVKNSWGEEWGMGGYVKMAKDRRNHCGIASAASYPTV

[3] = Mammalian cytotoxicity assay (MTT); format: cell-based; settings: rhesus monkey, LLCMK2 cells;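 also: Read-out is absorbance at 570 nm of formazan taken up in DMSO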
recombinant cruzain (Cz) = recombinant cruzain (Cz) (Trypanosoma cruzi, UniProt P25779); experiment: Cruzain enzyme inhibition; format: biochemical; settings: SD lower than 15%; read-out: pKi Cz (converted)
Chain of recombinant cruzain (Cz) (P25779 123-337): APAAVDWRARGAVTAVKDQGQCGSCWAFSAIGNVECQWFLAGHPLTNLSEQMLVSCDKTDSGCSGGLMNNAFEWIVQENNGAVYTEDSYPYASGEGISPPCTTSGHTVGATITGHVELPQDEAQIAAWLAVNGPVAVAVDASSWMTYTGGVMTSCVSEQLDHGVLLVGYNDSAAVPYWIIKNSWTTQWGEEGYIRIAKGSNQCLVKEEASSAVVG
Method: as §1

[4] = tested on: T. cruzi Tulahuen LacZ strain, intracellular amastigote forms; experiment: In vitro trypanocidal activity on intracellular amastigote forms (Tulahuen strain); format: cell-based, Trypanosoma cruzi; settings: for SI (selective index): from EC50 (T. cruzi) and CC50 (LLCMK2)
Method: Cells were evaluated in 96-well plates. Cells from the LLCMK2 lineage were plated at a concentration of 5x10^4 cells mL^-1. Trypomastigote forms of the Tulahuen LacZ strain were added at a concentration of 5×10^5 parasites mL^-1 and placed in the incubator at 37°C with 5% CO2 for 24 h. After the incubation period, the trypomastigote forms present were removed by successive washes with PBS, remaining only as intracellular amastigote forms. Compounds were added at different concentrations (1.95 μM to 250 μM serial dilutions) and incubated for 72 h. At the end of this period, the substrate CPRG (chlorophenol red β-D-galactopyranoside, 400 μM in 0.3% Triton X-100, pH 7.4) was added. […] Benznidazole was used as a positive control in the same concentrations as the substances, and DMSO as a negative control. Compounds were solubilized in DMSO. The selectivity index (SI) was calculated using the formula: […]. All statistical analyses were done with the program GraphPad Prism v.5.

[5] = LLCMK2, 72 h, MTT, Table 2, read-out: CC50 cytotoxicity
[6] = S1 Table, maximum concentration used 250 µM, read-out: CC50
[7] = Trypanosoma cruzi, TULAHUEN, 72 h, amastigote, Tulahuen strain, 72 h, Table 2, read-out: EC50 trypanocidal activity
[8] = Trypanosoma cruzi, TULAHUEN, T. cruzi amastigote form, S1 Table, read-out: pEC50 (converted)
[9] = Trypanosoma cruzi, TULAHUEN, read-out: EC50 T. cruzi, S1 Table, maximum concentration used 250 µM
[10] = Trypanosoma cruzi, TULAHUEN, read-out: pEC50, T. cruzi amastigote form (converted), S1 Table

Chain of cathepsin S (CatS) (P25774 115-331): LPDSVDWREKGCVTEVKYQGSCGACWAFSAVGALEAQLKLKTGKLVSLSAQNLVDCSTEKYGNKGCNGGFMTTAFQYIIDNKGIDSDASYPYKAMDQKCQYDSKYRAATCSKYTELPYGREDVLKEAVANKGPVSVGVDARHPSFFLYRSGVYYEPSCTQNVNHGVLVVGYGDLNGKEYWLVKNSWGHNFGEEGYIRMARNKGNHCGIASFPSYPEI

Row | Compound | Ki (cathepsin S (CatS)) [µM] | melting point [°C] | remaining activity at 10 µM (cathepsin B (CatB); 10 μM, replicates = 2, n.i. = no inhibition observed at 10 μM) [%] | Ki [1] [µM] | Ki [2] [µM] | Ki (cathepsin L (CatL)) [µM] | CC50 at 72 h [3, 5] [µM] | CC50 at 72 h [3, 6] [µM] | Ki (recombinant cruzain (Cz)) [µM] | EC50 [4, 7] [µM] | EC50 [4, 8] [µM] | SI (selective index) ([4]; Table 2) | EC50 ([4]; Trypanosoma cruzi, TULAHUEN, S1 Table, maximum concentration used 250 µM, read-out: EC50 T. cruzi) [µM] | pKi CatL (cathepsin L (CatL)) | EC50 [4, 9] [µM] | EC50 [4, 10] [µM] | Ki (cathepsin B (CatB)) [µM] | EC50 ([4]; Trypanosoma cruzi, TULAHUEN, amastigote forms of T. cruzi (Tuhaluen strain), Figs 12-14, unit inferred) [µM] | EC50 ([4]; Trypanosoma cruzi, TULAHUEN, 72 h, read-out: EC50 trypanocidal activity, amastigote, Tulahuen strain, 72 h, Table 2) [µM] | EC50 ([4]; amastigote, Tulahuen strain, 72 h, Table 2, read-out: EC50 trypanocidal activity) [µM]
1 | CC(C)CC(C#N)NC(=O)[C@H](Cc1ccccc1)NC(=O)c1cc(C(C)(C)C)nn1C (stereo in doubt) [Compound 53, 3-(tert-Butyl)-N-((S)-1-(((S)-1-cyano-3-methylbutyl)amino)-1-oxo-3-phenylpropan-2-yl)-1-methyl-1H-pyrazole-5-carboxamide] | 1 | 91 to 94 | 90 | 0.398 | 1 | 0.1 | > 100 | 132 | 0.316 | 26 ± 2.6 | 25.1 | > 3.8 | – | – | – | – | – | – | – | –
2 | O=C(Cn1ccnc1[N+](=O)[O-])NCc1ccccc1 [Benznidazole, reference compound] | – | – | – | – | – | – | > 100 | – | – | 4.4 ± 0.47 | 3.98 | > 23 | 4.3 | – | – | – | – | – | – | –
3 | N#CC1(NC(=O)[C@H](Cc2ccccc2)NC(=O)c2ccccc2)CC1 [Compound 6] | 0.0794 | – | – | 0.251 | 0.398 | – | – | – | – | – | – | – | – | 7.4 | > 100 | > 100 | – | – | – | –
4 | N#CC1(NC(=O)[C@H](Cc2cccc(Cl)c2)NC(=O)c2ccccc2)CC1 [Compound 7, (S)-N-(3-(3-Chlorophenyl)-1-((1-cyanocyclopropyl)amino)-1-oxopropan-2-yl)benzamide] | 0.02 | 213 to 215 | – | 0.631 | 0.631 | 0.0501 | – | 4 | 0.126 | – | – | – | – | – | > 100 | > 100 | 3.16 | – | – | –
5 | Cn1nc(C(C)(C)C)cc1C(=O)N[C@@H](Cc1cccc(Cl)c1)C(=O)NC1(C#N)CC1 [Compound 8, (S)-3-(tert-Butyl)-N-(3-(3-chlorophenyl)-1-((1-cyanocyclopropyl)amino)-1-oxopropan-2-yl)-1-methyl-1H-pyrazole-5-carboxamide] | 0.2 | 152 to 154 | – | 0.2 | 0.398 | 0.00251 | – | > 100 | 0.0398 | – | – | – | – | – | > 100 | > 100 | 3.98 | > 100 | – | –
6 | Cn1nc(C(C)(C)C)cc1C(=O)N[C@@H](Cc1ccccc1)C(=O)NC1(C#N)CC1 [Compound 9] | 0.158 | – | – | 0.0794 | 0.316 | 0.00631 | > 100 | – | 0.0501 | – | – | > 1.4 | – | – | – | 79.4 | 15.8 | – | 71.8 | 72 ± 5.7

From paper PMC7067379, “Mapping the S1 and S1’ subsites of cysteine proteases with new dipeptidyl nitrile inhibitors as trypanocidal agents” (PLoS Neglected Tropical Diseases, 2020)
